Literature values as cited in article PMC6843717 (ACS Omega, 2019).

Conditions: cited from earlier work; for bioavailability: FDA-approved small molecules for advanced breast cancer

SMILES | bioavailability [%] | bioavailability (F) (reported for other anticancer drugs)
CO[C@H]1C[C@@H]2CC[C@@H](C)[C@@](O)(O2)C(=O)C(=O)N2CCCC[C@H]2C(=O)O[C@H]([C@H](C)C[C@@H]2CC[C@@H](OCCO)[C@H](OC)C2)CC(=O)[C@H](C)/C=C(\C)[C@@H](O)[C@@H](OC)C(=O)[C@H](C)C[C@H](C)/C=C/C=C/C=C/1C [everolimus] | ~5 | –
CS(=O)(=O)CCNCc1ccc(-c2ccc3ncnc(Nc4ccc(OCc5cccc(F)c5)c(Cl)c4)c3c2)o1 [lapatinib] | – | 43–50%
CC(=O)O[C@H]1C(=O)[C@@]2(C)[C@H]([C@H](OC(=O)c3ccccc3)[C@]3(O)C[C@H](OC(=O)[C@H](O)[C@@H](NC(=O)c4ccccc4)c4ccccc4)C(C)=C1C3(C)C)[C@]1(OC(C)=O)CO[C@@H]1C[C@@H]2O [paclitaxel] | ~11 | –
